The test system of series [1] is M. luteus. Briefly: Bacterial growth inhibition assay (OD600nm). It counts as cell-based, Micrococcus luteus. An excerpt: (§1) Five marine bacterial species were used as models to assess antimicrofouling activity. The biofilm-forming marine bacteria Marinobacter hydrocarbonoclasticus DSM 8798 (ATCC 49840), Cobetia marina DSM 4741, Phaeobacter inhibens DSM 17,395, and Pseusooceanicola batsensis DSM 15,984 were obtained from DSMZ (Leibniz Institute DSMZ—German collection of Microorganisms and Cell Cultures) and Micrococcus luteus. Cultures were routinely grown in liquid marine broth (Carl Roth GmbH, Karlsruhe, Germany) with agitation (180 rpm) or on agar-supplemented marine broth, at 28 °C (M. hydrocarbonoclasticus and C. marina) or 30 °C (P. inhibens and P. batsensis). M. luteus was maintained in Brain Heart Infusion broth (BHI, Becton Dickinson, GmbH, Heidelberg, Germany) with agitation (180 rpm) or on agar-supplemented BHI, at 37 °C.
(§2) The antibacterial activity of the napyradiomycins (1–12) was assessed in 96-well polystyrene flat bottom microplates (Nunclon Delta Surface, Thermo Scientific, Roskilde, Denmark) following previously reported procedures. […] After 24 h (M. hydrocarbonoclasticus, C. marina) or 48 h (P. batsensis, P. inhibens, M. luteus) incubation, the OD600nm was determined (Molecular Devices, Spectra Max 190). […] The percentage of growth inhibition was calculated as the amount of growth relative to that of the bacterial species without added compounds (with the same amount of DMSO added). CuSO4 (5 μM), a potent antifouling agent used in antifouling paints, was used as reference.
(§3) All assays were performed in triplicate, and results are representative of the average and standard error of the mean (SEM). Statistical analysis was performed in GraphPad Prism 8.0.2 (San Diego, CA, USA), using one-way ANOVA followed by a Dunnett’s multiple comparisons test against the control (species grown with the same amount of DMSO added).

The subject of series [2] is C. marina. Briefly: Bacterial growth inhibition assay (OD600nm). It counts as cell-based, Cobetia marina.
Source text: as §1, §2, §3

Series [3] relates to P. batsensis. Briefly: Bacterial growth inhibition assay (OD600nm). It counts as cell-based, Pseudooceanicola batsensis. The protocol:
(§4) As a first screening approach, liquid cultures of M. hydrocarbonoclasticus, and C. marina in a 96-well format were analyzed for bacterial growth inhibition by percent decrease in OD600 after incubation with napyradiomycins (1–12) at 31.25 µg/mL.
as §1
(§5) The antibacterial activity of the napyradiomycins (1–12) was assessed in 96-well polystyrene flat bottom microplates (Nunclon Delta Surface, Thermo Scientific, Roskilde, Denmark) following previously reported procedures. For initial screening, bacterial overnight cultures were diluted to an optical density (OD600nm) of 0.2 and incubated statically at 28 °C (M. hydrocarbonoclasticus, C. marina), 30 °C (P. inhibens, P. batsensis) or 37 °C (M. luteus) in a 96-well microplate in the presence or absence of 31.25 µg/mL of the napyradiomycins, solubilized in DMSO. After 24 h (M. hydrocarbonoclasticus, C. marina) or 48 h (P. batsensis, P. inhibens, M. luteus) incubation, the OD600nm was determined (Molecular Devices, Spectra Max 190). […] The percentage of growth inhibition was calculated as the amount of growth relative to that of the bacterial species without added compounds (with the same amount of DMSO added). CuSO4 (5 μM), a potent antifouling agent used in antifouling paints, was used as reference.
as §3

Series [4] relates to P. inhibens. Briefly: Bacterial growth inhibition assay (OD600nm). It counts as cell-based, Phaeobacter inhibens. The procedure: as §4
Five marine bacterial species were used as models to assess antimicrofouling activity. The biofilm-forming marine bacteria Marinobacter hydrocarbonoclasticus DSM 8798 (ATCC 49840), Cobetia marina DSM 4741, Phaeobacter inhibens DSM 17,395, and Pseusooceanicola batsensis DSM 15,984 were obtained from DSMZ (Leibniz Institute DSMZ—German collection of Microorganisms and Cell Cultures) and Micrococcus luteus. […]
The antibacterial activity of the napyradiomycins (1–12) was assessed in 96-well polystyrene flat bottom microplates (Nunclon Delta Surface, Thermo Scientific, Roskilde, Denmark) following previously reported procedures. […] After 24 h (M. hydrocarbonoclasticus, C. marina) or 48 h (P. batsensis, P. inhibens, M. luteus) incubation, the OD600nm was determined (Molecular Devices, Spectra Max 190). […] The percentage of growth inhibition was calculated as the amount of growth relative to that of the bacterial species without added compounds (with the same amount of DMSO added). […]

Series [5] deals with M. hydrocarbonoclasticus. Briefly: Bacterial growth inhibition assay (OD600nm). It is filed as cell-based, Marinobacter hydrocarbonoclasticus. The protocol:
as §4, §1, §5, §3

Series [6] relates to M. hydrocarbonoclasticus. Briefly: Biofilm inhibition assay (crystal violet). It is filed as cell-based, Marinobacter hydrocarbonoclasticus. The procedure: (§6) In a 96-well plate, biofilm grown cultures of M. hydrocarbonoclasticus and C. marina were incubated with napyradiomycins (1–12) at a concentration of 31.25 µg/mL. After discarding the media, biofilm inhibition was determined from OD600 measurements of crystal violet stained cells resuspended from the plate bottom with acetic acid.
as §1
(§7) The antibiofilm activity of napyradiomycins (1–12) against the five marine bacterial species was assessed in 96-well polystyrene flat bottom microplates (Nunclon Delta Surface, Thermo Scientific, Roskilde, Denmark) as previously reported. For initial screening, bacterial overnight cultures were diluted to an optical density (OD600nm) value of 0.2 and incubated statically at 28 °C (M. hydrocarbonoclasticus, C. marina), 30 °C (P. inhibens, P. batsensis) or 37 °C (M. luteus) in the 96-well microplate in the presence or absence of 31.25 µg/mL of napyradiomycins, solubilized in DMSO. After 24 h (M. hydrocarbonoclasticus, C. marina) or 48 h (P. batsensis, P. inhibens, M. luteus) incubation, the OD600nm was determined. The planktonic cells and media were discarded, and the wells were washed twice with deionized water. The biofilm was fixed for 1 h at 60 °C and stained with crystal violet 0.06% for 10 min. The dye was discarded, and the wells were again washed twice with deionized water. The stained biofilm was solubilized with 30% acetic acid and the OD600nm was determined. […] The percentage of biofilm inhibition was calculated as the amount of biofilm relative to that of the bacterial species without added compounds (with the same amount of DMSO added). CuSO4 (5 μM), a potent antifouling agent used in antifouling paints, was used as reference.
(§8) All assays were performed in triplicate, and results are representative of the average and standard error of the mean (SEM). Statistical analysis was performed in GraphPad Prism 8.0.2, using one-way ANOVA followed by a Dunnett’s multiple comparisons test against the control (species grown with the same amount of DMSO added).

The test system of series [7] is C. marina. Briefly: Biofilm inhibition assay (crystal violet). It counts as cell-based, Cobetia marina. The procedure: as §6, §1, §7, §8
The subject of series [8] is M. luteus. Briefly: Biofilm inhibition assay (crystal violet). It is filed as cell-based, Micrococcus luteus. The protocol: as §6, §1, §7, §8
The subject of series [9] is P. batsensis. Briefly: Biofilm inhibition assay (crystal violet). It counts as cell-based, Pseudooceanicola batsensis. The procedure: as §6, §1, §7, §8
Series [10] deals with P. inhibens. Briefly: Biofilm inhibition assay (crystal violet). It is filed as cell-based, Phaeobacter inhibens. The procedure: as §6, §1, §7
All assays were performed in triplicate, and results are representative of the average and standard error of the mean (SEM). […]

The test system of the next series is M. edulis. Further details: method as in doi:10.1016/S0044-8486(97)00209-3. As to conditions: against M. edulis ref 62; cited from earlier work.
Series [11] can be described thus: Mussel plantigrade larvae settlement, 15 h acute exposure assay. It counts as in vivo. The following applies: Mytilus galloprovincialis (mussel, plantigrade larvae), in vivo, no mortality at highest tested concentration 12 µg/mL. The procedure:
(§9) Mussel (M. galloprovincialis) adhesive larvae (plantigrades) were used to assess in vivo the antifouling activity of napyradiomycins (1–12) towards macrofouling. Juvenile mussel aggregates were collected at the intertidal rocky shore during low spring tides, at Memória beach, Matosinhos, Portugal (41°13′59″ N; 8°43′28″ W). At the laboratory, immediately before the bioassays, mussel plantigrade larvae were screened and isolated from the juvenile aggregates using a binocular microscope (Olympus SZX2-ILLT, Hamburg, Germany) and washed with filtered seawater to remove organic debris. Only competent plantigrade larvae (those showing foot exploratory behavior) were selected and used in the exposure bioassays following previously validated procedures. Plantigrades were exposed in 24-well polystyrene plates for 15 h in the darkness at 18 °C. DMSO was used as solvent for crude extracts, fractions and pure compounds stock and working solutions. Working solutions were prepared by successive dilutions of stock solutions in DMSO and then diluted in filtered seawater to obtain the test solutions. DMSO concentration in test solutions was always 0.1%. Four well replicates were used per condition with five larvae per well. Two negative controls, one with ultra-pure water and the other with DMSO 0.1% were included in all bioassays, as well as a positive control with 5 μM CuSO4 (a potent antifouling agent). Anti-settlement bioactivity was determined by the presence/absence of fixed byssal threads produced by each individual larvae for all the conditions tested. […] Chi-square Pearsons goodness-of-fit test was applied to data in order to determine EC50. Significance was considered at p < 0.01 for all analyses, and 95% lower and upper confidence limits [95% LCL; UCL] were presented. Therapeutic ratio (LC50/EC50) was used to evaluate the effectiveness vs. toxicity of compounds [19, 21].

Series [12] deals with M. galloprovincialis plantigrade larvae. The description is as above. The following applies: Mytilus galloprovincialis, 15 h, 95% LCL, UCL in brackets, read-out: EC50 [Conf. limits] larval settlement. It counts as in vivo. The protocol:
as §9

Values after ≈ are worked out from the molar mass of the structure shown.

In the case of `O=S(=O)([O-])[O-].[Cu+2]` [CuSO4, reference compound], the “growth inhibition M. luteus” value with M. luteus [1] (CuSO4 5 μM reference) is recorded as “not inhibited”. In addition, the “growth inhibition C. marina” value in the series with C. marina [2] (CuSO4 5 μM reference) is on record as “not inhibited”. Besides, the “% growth inhibition P. batsensis” value in the series with P. batsensis [3] (CuSO4 5 μM reference) was determined as 44.8 ± 6.3%. Moreover, the “% growth inhibition P. inhibens” value in the series on P. inhibens [4] (CuSO4 5 μM reference) came out at 66.2 ± 5.6%. Further, the “% growth inhibition M. hydrocarbonoclasticus” value with M. hydrocarbonoclasticus [5] (CuSO4 5 μM reference) is reported as 35.8 ± 0.8%. Also, the “biofilm inhibition M. hydrocarbonoclasticus” value with M. hydrocarbonoclasticus [6] (CuSO4 5 μM reference) is given as “not inhibited”. The “biofilm inhibition C. marina” value with C. marina [7] (CuSO4 5 μM reference) is recorded as “not inhibited”. The “biofilm inhibition M. luteus” value with M. luteus [8] (CuSO4 5 μM reference) is on record as “not inhibited”. Further, in the series with P. batsensis [9] (CuSO4 5 μM reference), the “% biofilm inhibition P. batsensis” value was 41.4 ± 0.9%. In addition, the “% biofilm inhibition P. inhibens” value in the series with P. inhibens [10] (CuSO4 5 μM reference) came to 12.9 ± 6.4%.
In the case of ivermectin, in the series on M. edulis, the EC50 is 0.4 mg/L.
As to `CC(=CCCC(C)=CCC12OC(C)(C)C(Cl)CC1(Cl)C(=O)c1c(O)cc(O)cc1C2=O)CO` (centres unmarked) [Napyradiomycin 2, 18-hydroxynapyradiomycin A1], the “% growth inhibition M. luteus” value in the series with M. luteus [1] (31.25 µg/mL) is recorded as “did not inhibit growth”. For the same compound, in the series with C. marina [2] (31.25 µg/mL), the “% growth inhibition C. marina” value is on record as “did not inhibit growth”. Further, the “% growth inhibition P. batsensis” value in the series on P. batsensis [3] (31.25 µg/mL) is “did not inhibit growth”. Further, the “% growth inhibition P. inhibens” value with P. inhibens [4] (31.25 µg/mL) is recorded as “did not inhibit growth”. In addition, the “% growth inhibition M. hydrocarbonoclasticus” value with M. hydrocarbonoclasticus [5] (31.25 µg/mL) is given as “did not inhibit growth”. Moreover, the inhibition at 0.98 µg/mL in the series with M. hydrocarbonoclasticus [6] (Marinobacter nauticus, 0.98 µg/mL, read-out: % inhibition of biofilm formation M. hydro.) worked out at 24.6 ± 9.8%. Further, the inhibition at 1.95 µg/mL with M. hydrocarbonoclasticus [6] (Marinobacter nauticus, 1.95 µg/mL, read-out: % inhibition of biofilm formation M. hydro.) was found to be 56.5 ± 5.7%. Further, the inhibition at 15.6 µg/mL in the series with M. hydrocarbonoclasticus [6] (Marinobacter nauticus, 15.6 µg/mL, read-out: % inhibition of biofilm formation M. hydro.) worked out at 56.6 ± 0.9%. The inhibition at 31.25 µg/mL with M. hydrocarbonoclasticus [6] (Marinobacter nauticus, 31.25 µg/mL, read-out: % Biofilm Inhibition ± SEM M. hydrocarbonoclasticus) came out at 60.2 ± 5.7%. Moreover, in the series on C. marina [7] (31.25 µg/mL), the “% Biofilm Inhibition ± SEM C. marina” value was “N.I”. The “% Biofilm Inhibition ± SEM M. luteus” value in the series with M. luteus [8] (31.25 µg/mL) is listed as “N.I”. For the same compound, in the series with P. batsensis [9] (31.25 µg/mL), the “% Biofilm Inhibition ± SEM P. batsensis” value was “N.I”. Further, in the series with P. inhibens [10] (31.25 µg/mL), the “% Biofilm Inhibition ± SEM P. inhibens” value was “N.I”. The compound further registered a median lethal concentration (LC50) at 15 h in series [11] greater than 12 mg/L. In addition, the EC50 in series [12] turned out to be 2 mg/L (≈ 4.02 µM).

By EC50 is commonly meant the concentration that produces a half-maximal response. Usually inhibition stands for the change of the read-out against control, counted positive when it falls. In general, LC50 refers to the concentration that kills 50% of the test population. Low values mean greater toxicity, high ones lower toxicity.
